Read-outs that look alike come from different tables or passages of the source.
Legend:
K562 cells = test system: K562 cells
Procedure: It is known from the literature that sodium butyrate derives K562 cells into the erythroid differentiation program (Sutherland et al. 1986). Base on such an observation, the ability of 1,3-cPP alone or in combination with sodium butyrate may trigger the erythroid differentiation program manifested by hemoglobin production.
K562 cells were incubated for 5 days in the presence or absence of 10 or 50 μM 1,3cPP and 1 mM butyric acid as a differentiating agent. Quantitative measurements of hemoglobin production was determined by staining of lysed cells with benzidine-peroxide reagent. The benzidine-peroxide reagent was prepared by dissolving 3,3′,5,5′-tetramethyl benzidine in 90% acetic acid and mixing with an equal volume of freshly prepared 1% hydrogen peroxide. Cell lysate, obtained by hypotonic lysing of 5×10^4 cells in 0.1 ml distilled water, was added to 0.1 ml benzidine reagent and incubated at room temperature for 10 minutes in the dark. Absorbance was measured at 515 nm and was taken as a relative index of the hemoglobin level.

[1] = test system: ER-α mRNA in T47D clone 8 cells; experiment: Quantitative RT-PCR of ER-α mRNA in T47D clone 8 cells; type: cell-based, human; conditions: 20 μM, 6 days (FIG. 4D)
Procedure: It should however be understood that the augmented expression of ER-α and PR presented in FIGS. 1-3 could have in principle originated from increase in either transcription or translation associated with the respective steroid receptor genes. Therefore the effects of long term incubation with 1,3cPP on the respective ER-α and PR mRNA levels were examined. Quantitative RT-PCR was carried out with a Light Cycler as described. […] In contrast, only 20 μM 1,3-cPP were required to induce 7-fold increase in the ER-α mRNA in T47D clone 8 cells (FIG. 4D). […]
RT-PCR was carried out on a programmable thermal controller instrument according to standard protocols, where the annealing temperatures were 58° C. for ER-α and 56° C. for PR. […] The PCR products were diluted and used to build a standard curve for the quantitative PCR which was carried out in a Light Cycler instrument (Roche Diagnostics, Mannheim, Germany). […] For each control and test sample, the amount of the constitutively expressed house keeping enzyme glyceraldehyde-3-phosphate dehydrogenase (GAPDH) mRNA was quantified by using appropriate primers and the quantity of ER-α and PR mRNA were normalized to the quantity of GAPDH mRNA in each sample. The relative amounts of ER-α and PR mRNA were expressed as normalized 1,3cPP treatment values divided by the normalized control values.

Structure (SMILES): O=P1(O)OCCCO1 [1,3-cPP, 1,3-cyclic propanediol phosphate]
- baseline production of hemoglobin (K562 cells; K562 cells, 10 μM 1,3-cPP together with 1 mM sodium butyrate, 5 days): more than doubling
- baseline production of hemoglobin (K562 cells; K562 cells, 50 μM 1,3-cPP together with 1 mM sodium butyrate, 5 days): more than tripling
- hemoglobin production (K562 cells; K562 cells, 1,3-cPP alone, 5 days): almost no effect
- cell viability (K562 cells; K562 cells, all groups): over 85%
- interaction with sodium butyrate on hemoglobin production and proliferation (K562 cells; K562 cells, combination with sodium butyrate (FIG. 7)): synergizes with sodium butyrate
- total cell number (K562 cells; K562 cells, fifth day, most prominently 50 μM 1,3-cPP together with 1 mM sodium butyrate): concurrent decrease
- increase in the ER-α mRNA [1]: 7 fold
